According to the kinase profiling compilation of Christmann-Franck et al. (2016):

What was measured:
Test in all cases: KINOMEscan competition binding
Details in all cases: compound 10.0 µM
FYN (human) = FYN (human) (UniProt P06241)
ZAP70 (human) = ZAP70 (human) (UniProt P43403)
[1] = molecular target: JAK3 JH1 catalytic (human) (UniProt P52333)
MAPK15 (human) = MAPK15 (human) (UniProt Q8TD08)
PKN2 (human) = PKN2 (human) (UniProt Q16513)
PTK6 (human) = PTK6 (human) (UniProt Q13882)
MYO3B (human) = MYO3B (human) (UniProt Q8WXR4)
ACVR2B (human) = ACVR2B (human) (UniProt Q13705)
PRKACB (human) = PRKACB (human) (UniProt P22694)
TLK1 (human) = TLK1 (human) (UniProt Q9UKI8)
AKT3 (human) = AKT3 (human) (UniProt Q9Y243)
FGFR1 (human) = FGFR1 (human) (UniProt P11362)
RPS6KA4 KD2 (human) = RPS6KA4 KD2 (human) (UniProt O75676)
RPS6KA6 KD1 (human) = RPS6KA6 KD1 (human) (UniProt Q9UK32)
PAK2 (human) = PAK2 (human) (UniProt Q13177)
DMPK (human) = DMPK (human) (UniProt Q09013)
BTK (human) = BTK (human) (UniProt Q06187)
CSK (human) = CSK (human) (UniProt P41240)
IRAK3 (human) = IRAK3 (human) (UniProt Q9Y616)
CDK15 (human) = CDK15 (human) (UniProt Q96Q40)
MINK1 (human) = MINK1 (human) (UniProt Q8N4C8)
[2] = system: FGFR3 (human), P22607 [G697C]
WEE2 (human) = WEE2 (human) (UniProt P0C1S8)
PIK3C2B (human) = PIK3C2B (human) (UniProt O00750)
CSNK1D (human) = CSNK1D (human) (UniProt P48730)
AKT2 (human) = AKT2 (human) (UniProt P31751)
EPHA5 (human) = EPHA5 (human) (UniProt P54756)
TNNI3K (human) = TNNI3K (human) (UniProt Q59H18)
LIMK1 (human) = LIMK1 (human) (UniProt P53667)
KIT (human) = KIT (human) (UniProt P10721)
EGFR (human) = EGFR (human) (UniProt P00533)
TNK1 (human) = TNK1 (human) (UniProt Q13470)
SRMS (human) = SRMS (human) (UniProt Q9H3Y6)
IKBKE (human) = IKBKE (human) (UniProt Q14164)
CDKL5 (human) = CDKL5 (human) (UniProt O76039)
[3] = system: PIK3CA (human), P42336 [M1043I]

Chain of MYO3B (human) (Q8WXR4 whole entry, looked up): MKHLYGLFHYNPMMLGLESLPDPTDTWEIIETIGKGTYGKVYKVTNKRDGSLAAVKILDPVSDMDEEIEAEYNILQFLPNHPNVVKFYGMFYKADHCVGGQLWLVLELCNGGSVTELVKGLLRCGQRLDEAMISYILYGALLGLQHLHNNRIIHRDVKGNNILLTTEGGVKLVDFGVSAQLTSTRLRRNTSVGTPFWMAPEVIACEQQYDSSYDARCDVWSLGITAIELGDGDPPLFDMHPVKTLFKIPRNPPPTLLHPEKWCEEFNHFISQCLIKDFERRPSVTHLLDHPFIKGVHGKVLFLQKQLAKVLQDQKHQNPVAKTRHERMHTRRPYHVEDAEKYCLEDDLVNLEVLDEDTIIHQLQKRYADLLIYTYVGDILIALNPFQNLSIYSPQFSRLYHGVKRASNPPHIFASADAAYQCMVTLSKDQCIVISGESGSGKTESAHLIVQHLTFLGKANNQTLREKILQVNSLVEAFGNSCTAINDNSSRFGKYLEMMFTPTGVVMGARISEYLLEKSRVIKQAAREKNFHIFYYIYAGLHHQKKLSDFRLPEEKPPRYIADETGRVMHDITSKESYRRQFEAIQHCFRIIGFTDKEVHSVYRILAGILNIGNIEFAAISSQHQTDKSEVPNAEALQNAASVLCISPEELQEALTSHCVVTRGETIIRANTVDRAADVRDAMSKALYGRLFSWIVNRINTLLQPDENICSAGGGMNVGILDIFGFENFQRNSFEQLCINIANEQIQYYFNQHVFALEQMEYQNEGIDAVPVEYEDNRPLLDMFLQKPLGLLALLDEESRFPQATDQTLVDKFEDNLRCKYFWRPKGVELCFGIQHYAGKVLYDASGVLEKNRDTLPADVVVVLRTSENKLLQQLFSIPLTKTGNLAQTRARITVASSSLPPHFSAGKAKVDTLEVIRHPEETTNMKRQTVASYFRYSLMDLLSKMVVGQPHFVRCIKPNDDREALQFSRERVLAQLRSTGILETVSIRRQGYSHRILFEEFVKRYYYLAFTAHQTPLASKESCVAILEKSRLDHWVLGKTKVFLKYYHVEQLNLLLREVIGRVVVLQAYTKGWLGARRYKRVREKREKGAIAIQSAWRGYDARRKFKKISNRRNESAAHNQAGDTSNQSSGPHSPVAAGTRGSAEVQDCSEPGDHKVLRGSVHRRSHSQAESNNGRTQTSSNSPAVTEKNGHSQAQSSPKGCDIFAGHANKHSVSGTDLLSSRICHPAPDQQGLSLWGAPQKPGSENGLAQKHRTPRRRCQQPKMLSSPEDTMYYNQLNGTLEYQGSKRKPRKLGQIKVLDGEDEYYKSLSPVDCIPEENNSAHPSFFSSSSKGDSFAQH
Chain of SRMS (human) (Q9H3Y6 whole entry, looked up): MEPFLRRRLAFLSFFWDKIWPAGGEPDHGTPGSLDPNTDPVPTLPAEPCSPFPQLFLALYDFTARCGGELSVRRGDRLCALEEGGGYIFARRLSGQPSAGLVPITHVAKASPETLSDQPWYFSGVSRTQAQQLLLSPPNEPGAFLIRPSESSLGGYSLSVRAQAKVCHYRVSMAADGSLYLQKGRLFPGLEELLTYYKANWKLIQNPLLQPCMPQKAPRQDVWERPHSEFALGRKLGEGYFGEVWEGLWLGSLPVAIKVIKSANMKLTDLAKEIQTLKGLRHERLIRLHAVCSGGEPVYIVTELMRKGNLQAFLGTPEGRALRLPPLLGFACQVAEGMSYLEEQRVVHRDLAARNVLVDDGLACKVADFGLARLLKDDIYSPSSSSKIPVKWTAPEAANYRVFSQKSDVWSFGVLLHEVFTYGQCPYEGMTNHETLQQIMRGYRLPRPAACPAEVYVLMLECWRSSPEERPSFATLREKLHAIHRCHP
Chain of AKT3 (human) (Q9Y243 whole entry, looked up): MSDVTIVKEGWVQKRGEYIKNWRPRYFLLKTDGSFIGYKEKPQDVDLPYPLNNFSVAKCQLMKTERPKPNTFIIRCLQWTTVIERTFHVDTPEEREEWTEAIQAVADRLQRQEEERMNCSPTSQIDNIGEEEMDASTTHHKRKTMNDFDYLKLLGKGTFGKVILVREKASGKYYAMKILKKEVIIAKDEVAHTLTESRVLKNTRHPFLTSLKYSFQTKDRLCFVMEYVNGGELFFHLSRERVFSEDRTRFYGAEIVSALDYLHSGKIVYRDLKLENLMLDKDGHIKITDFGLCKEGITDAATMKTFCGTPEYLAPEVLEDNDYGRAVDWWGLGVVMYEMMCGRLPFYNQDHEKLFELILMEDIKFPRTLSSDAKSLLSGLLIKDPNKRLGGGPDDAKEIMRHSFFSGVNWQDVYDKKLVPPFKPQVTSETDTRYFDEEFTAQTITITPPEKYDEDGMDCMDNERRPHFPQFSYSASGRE
Chain of MAPK15 (human) (Q8TD08 whole entry, looked up): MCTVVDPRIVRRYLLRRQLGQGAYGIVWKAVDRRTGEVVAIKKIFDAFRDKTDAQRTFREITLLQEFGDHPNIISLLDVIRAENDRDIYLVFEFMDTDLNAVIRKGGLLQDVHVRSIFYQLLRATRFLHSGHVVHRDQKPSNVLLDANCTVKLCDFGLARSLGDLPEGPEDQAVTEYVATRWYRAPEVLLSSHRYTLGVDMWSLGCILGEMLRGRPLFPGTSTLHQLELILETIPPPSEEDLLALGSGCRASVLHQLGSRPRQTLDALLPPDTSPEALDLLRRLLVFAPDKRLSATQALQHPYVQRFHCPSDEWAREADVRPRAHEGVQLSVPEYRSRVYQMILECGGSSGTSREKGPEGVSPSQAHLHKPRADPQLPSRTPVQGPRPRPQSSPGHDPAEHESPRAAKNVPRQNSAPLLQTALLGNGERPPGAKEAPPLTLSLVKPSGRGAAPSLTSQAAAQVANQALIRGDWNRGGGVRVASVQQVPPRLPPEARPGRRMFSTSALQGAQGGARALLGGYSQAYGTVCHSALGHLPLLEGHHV
Chain of FGFR1 (human) (P11362 whole entry, looked up): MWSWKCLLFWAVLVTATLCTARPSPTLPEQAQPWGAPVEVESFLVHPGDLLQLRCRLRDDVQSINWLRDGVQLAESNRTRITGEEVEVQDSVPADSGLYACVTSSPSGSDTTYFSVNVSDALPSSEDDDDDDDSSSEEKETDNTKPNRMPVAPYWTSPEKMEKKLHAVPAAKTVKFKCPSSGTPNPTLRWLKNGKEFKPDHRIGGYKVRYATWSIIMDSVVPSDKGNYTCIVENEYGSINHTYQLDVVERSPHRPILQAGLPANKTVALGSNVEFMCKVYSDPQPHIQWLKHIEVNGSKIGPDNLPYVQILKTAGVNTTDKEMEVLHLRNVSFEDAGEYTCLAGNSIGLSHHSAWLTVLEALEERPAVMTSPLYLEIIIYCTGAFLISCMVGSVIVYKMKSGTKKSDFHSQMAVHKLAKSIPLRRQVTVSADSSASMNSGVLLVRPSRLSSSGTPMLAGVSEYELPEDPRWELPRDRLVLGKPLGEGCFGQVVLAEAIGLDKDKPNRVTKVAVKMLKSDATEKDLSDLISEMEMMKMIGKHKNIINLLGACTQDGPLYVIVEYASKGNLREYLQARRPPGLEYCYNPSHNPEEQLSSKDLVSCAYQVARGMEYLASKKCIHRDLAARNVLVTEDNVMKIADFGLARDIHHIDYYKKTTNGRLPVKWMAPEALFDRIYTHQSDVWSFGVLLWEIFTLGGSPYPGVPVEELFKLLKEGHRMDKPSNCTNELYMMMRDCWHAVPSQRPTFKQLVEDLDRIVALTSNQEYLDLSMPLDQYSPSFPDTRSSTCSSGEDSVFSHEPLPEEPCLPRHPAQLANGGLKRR
Chain of WEE2 (human) (P0C1S8 whole entry, looked up): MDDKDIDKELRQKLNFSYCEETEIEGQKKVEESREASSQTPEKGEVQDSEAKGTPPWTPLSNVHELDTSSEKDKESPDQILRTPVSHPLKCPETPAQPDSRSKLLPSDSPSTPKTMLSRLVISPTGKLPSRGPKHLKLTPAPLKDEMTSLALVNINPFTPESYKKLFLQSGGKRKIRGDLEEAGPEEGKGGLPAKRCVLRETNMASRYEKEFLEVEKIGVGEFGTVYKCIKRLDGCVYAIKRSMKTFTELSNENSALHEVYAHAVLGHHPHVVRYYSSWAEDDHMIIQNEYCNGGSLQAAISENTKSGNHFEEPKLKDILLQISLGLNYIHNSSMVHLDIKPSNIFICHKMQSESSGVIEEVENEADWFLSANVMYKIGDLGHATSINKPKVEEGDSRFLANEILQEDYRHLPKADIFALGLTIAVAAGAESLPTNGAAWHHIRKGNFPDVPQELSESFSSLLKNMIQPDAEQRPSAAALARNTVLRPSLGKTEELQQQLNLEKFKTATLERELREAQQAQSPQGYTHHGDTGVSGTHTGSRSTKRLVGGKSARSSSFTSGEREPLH
Chain of RPS6KA4 KD2 (human) (O75676 whole entry, looked up): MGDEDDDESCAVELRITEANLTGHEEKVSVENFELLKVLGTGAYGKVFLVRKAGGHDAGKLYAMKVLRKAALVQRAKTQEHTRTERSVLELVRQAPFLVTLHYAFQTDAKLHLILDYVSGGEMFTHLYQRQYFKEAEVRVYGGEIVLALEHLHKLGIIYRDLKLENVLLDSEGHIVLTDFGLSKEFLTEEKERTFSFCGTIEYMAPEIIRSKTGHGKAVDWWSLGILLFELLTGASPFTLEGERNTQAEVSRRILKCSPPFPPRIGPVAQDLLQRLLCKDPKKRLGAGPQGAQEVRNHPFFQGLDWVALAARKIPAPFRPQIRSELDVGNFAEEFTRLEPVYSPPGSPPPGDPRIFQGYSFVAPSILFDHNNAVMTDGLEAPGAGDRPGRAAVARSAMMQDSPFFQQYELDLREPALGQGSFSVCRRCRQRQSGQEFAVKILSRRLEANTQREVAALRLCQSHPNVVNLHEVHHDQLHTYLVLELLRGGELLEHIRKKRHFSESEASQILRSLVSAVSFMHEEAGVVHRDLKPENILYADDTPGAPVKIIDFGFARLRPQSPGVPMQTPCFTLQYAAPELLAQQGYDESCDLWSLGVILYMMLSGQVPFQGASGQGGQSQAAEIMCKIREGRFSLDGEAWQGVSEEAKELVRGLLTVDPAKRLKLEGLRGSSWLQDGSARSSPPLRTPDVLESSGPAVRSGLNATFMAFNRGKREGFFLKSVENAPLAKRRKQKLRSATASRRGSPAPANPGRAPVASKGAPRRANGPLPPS

SMILES | kinase still bound, per cent of control (FYN (human)) | kinase still bound, per cent of control (ZAP70 (human)) | kinase still bound, per cent of control [1] | kinase still bound, per cent of control (MAPK15 (human)) | kinase still bound, per cent of control (PKN2 (human)) | kinase still bound, per cent of control (PTK6 (human)) | kinase still bound, per cent of control (MYO3B (human)) | kinase still bound, per cent of control (ACVR2B (human)) | kinase still bound, per cent of control (PRKACB (human)) | kinase still bound, per cent of control (TLK1 (human)) | kinase still bound, per cent of control (AKT3 (human)) | kinase still bound, per cent of control (FGFR1 (human)) | kinase still bound, per cent of control (RPS6KA4 KD2 (human)) | kinase still bound, per cent of control (RPS6KA6 KD1 (human)) | kinase still bound, per cent of control (PAK2 (human)) | kinase still bound, per cent of control (DMPK (human)) | kinase still bound, per cent of control (BTK (human)) | kinase still bound, per cent of control (CSK (human)) | kinase still bound, per cent of control (IRAK3 (human)) | kinase still bound, per cent of control [2] | other results
COc1cc(C)c(Sc2cnc(NC(=O)c3ccc(CNC(C)C(C)C)cc3)s2)cc1C(=O)N1CCN(C(C)=O)CC1 (centres undefined) | 100% | 100% | 100% | 100% | 100% | 100% | 100% | 100% | 100% | 100% | 100% | 100% | 100% | 100% | 100% | 100% | 2.6% | 100% | 100% | 100% | kinase still bound, per cent of control (CDK15 (human)): 100%; kinase still bound, per cent of control (MINK1 (human)): 100%; kinase still bound, per cent of control (WEE2 (human)): 3.6%; kinase still bound, per cent of control (PIK3C2B (human)): 100%; kinase still bound, per cent of control (CSNK1D (human)): 100%; kinase still bound, per cent of control (AKT2 (human)): 100%; kinase still bound, per cent of control (EPHA5 (human)): 100%; kinase still bound, per cent of control (TNNI3K (human)): 100%; kinase still bound, per cent of control (LIMK1 (human)): 100%; kinase still bound, per cent of control (KIT (human)): 100%; kinase still bound, per cent of control (EGFR (human)): 100%; kinase still bound, per cent of control (TNK1 (human)): 100%; kinase still bound, per cent of control (SRMS (human)): 100%; kinase still bound, per cent of control (IKBKE (human)): 100%
COc1ccc(N(C(=O)Oc2cc(C(=O)Nc3cccc(C(F)(F)F)c3)ccc2C)c2ccnc(Nc3ccc(N4CCN(C)CC4)cc3)n2)c(OC)c1 | 1.4% | 100% | 8.8% | 100% | 100% | 4% | 100% | 100% | 27% | 100% | 100% | 0.6% | 100% | 100% | 100% | 100% | 1.4% | 1.2% | 100% | 8.6% | kinase still bound, per cent of control (CSNK1D (human)): 100%; kinase still bound, per cent of control (AKT2 (human)): 100%; kinase still bound, per cent of control (EPHA5 (human)): 0.85%; kinase still bound, per cent of control (TNNI3K (human)): 0.6%; kinase still bound, per cent of control (LIMK1 (human)): 2.8%; kinase still bound, per cent of control (KIT (human)): 0.8%; kinase still bound, per cent of control (EGFR (human)): 3.4%; kinase still bound, per cent of control (TNK1 (human)): 1.6%; kinase still bound, per cent of control (SRMS (human)): 0%; kinase still bound, per cent of control (IKBKE (human)): 100%
COc1cc(N2CCC(C(N)=O)CC2)ccc1Nc1nc(N)c(Cl)c(Nc2ccccc2S(=O)(=O)C(C)C)n1 | 100% | 100% | 100% | 100% | 100% | 3% | 24% | 100% | 100% | 100% | 100% | 100% | 100% | 100% | 100% | 100% | 26% | 100% | 29% | 100% | kinase still bound, per cent of control (CDK15 (human)): 100%; kinase still bound, per cent of control (MINK1 (human)): 100%; kinase still bound, per cent of control (WEE2 (human)): 100%; kinase still bound, per cent of control (PIK3C2B (human)): 100%; kinase still bound, per cent of control (CSNK1D (human)): 100%; kinase still bound, per cent of control (AKT2 (human)): 100%; kinase still bound, per cent of control (EPHA5 (human)): 100%; kinase still bound, per cent of control (TNNI3K (human)): 100%; kinase still bound, per cent of control (LIMK1 (human)): 100%; kinase still bound, per cent of control (KIT (human)): 100%; kinase still bound, per cent of control (EGFR (human)): 0.55%; kinase still bound, per cent of control (TNK1 (human)): 3.8%; kinase still bound, per cent of control (SRMS (human)): 7.3%; kinase still bound, per cent of control (IKBKE (human)): 100%
Cc1cn(-c2cc(C(=O)Nc3ccc(C)c(NC(=O)c4ccno4)c3)cc(C(F)(F)F)c2)cn1 | 9.6% | 100% | 100% | 100% | 100% | 24% | 100% | 100% | 100% | 100% | 100% | 100% | 100% | 100% | 100% | 100% | 100% | 29% | 100% | 100% | kinase still bound, per cent of control (CDKL5 (human)): 100%; kinase still bound, per cent of control [3]: 100%; kinase still bound, per cent of control (CDK15 (human)): 100%; kinase still bound, per cent of control (MINK1 (human)): 100%; kinase still bound, per cent of control (WEE2 (human)): 100%; kinase still bound, per cent of control (PIK3C2B (human)): 100%; kinase still bound, per cent of control (CSNK1D (human)): 100%; kinase still bound, per cent of control (AKT2 (human)): 100%; kinase still bound, per cent of control (EPHA5 (human)): 17%; kinase still bound, per cent of control (TNNI3K (human)): 29%; kinase still bound, per cent of control (LIMK1 (human)): 100%; kinase still bound, per cent of control (KIT (human)): 0%; kinase still bound, per cent of control (EGFR (human)): 100%; kinase still bound, per cent of control (TNK1 (human)): 100%; kinase still bound, per cent of control (SRMS (human)): 26%; kinase still bound, per cent of control (IKBKE (human)): 100%
